Results from ChEMBL document CHEMBL1201862, “PubChem BioAssay data set” (2004).
Active and inactive are the calls of the source.

Key:
[1] = target: NAD-dependent protein deacylase sirtuin-5, mitochondrial (Homo sapiens, UniProt Q9NXA8); experiment: sirtuin-5 deacylation blockers, concentration series – biochemical, fluorescence imaging, cherry-pick, set 5, dose response (AID 720591);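 further: desuccinylation of succinyl peptide AMC substrate read as fluorescence after trypsin release; potency of inhibitors that lower fluorescence and may act on trypsin instead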
[2] = IC50 of insulin release inhibition, rat insulinoma INS-1E line, 5 mM glucose, cell-based (AID 1117331); assay type: functional
cells [3] = assay type: functional, cell-based; details: INS-1E
Protein skinhead-1 = target: T1, Protein skinhead-1 (Caenorhabditis elegans, UniProt P34707); assay type: functional
T1 sequence (P34707 whole entry): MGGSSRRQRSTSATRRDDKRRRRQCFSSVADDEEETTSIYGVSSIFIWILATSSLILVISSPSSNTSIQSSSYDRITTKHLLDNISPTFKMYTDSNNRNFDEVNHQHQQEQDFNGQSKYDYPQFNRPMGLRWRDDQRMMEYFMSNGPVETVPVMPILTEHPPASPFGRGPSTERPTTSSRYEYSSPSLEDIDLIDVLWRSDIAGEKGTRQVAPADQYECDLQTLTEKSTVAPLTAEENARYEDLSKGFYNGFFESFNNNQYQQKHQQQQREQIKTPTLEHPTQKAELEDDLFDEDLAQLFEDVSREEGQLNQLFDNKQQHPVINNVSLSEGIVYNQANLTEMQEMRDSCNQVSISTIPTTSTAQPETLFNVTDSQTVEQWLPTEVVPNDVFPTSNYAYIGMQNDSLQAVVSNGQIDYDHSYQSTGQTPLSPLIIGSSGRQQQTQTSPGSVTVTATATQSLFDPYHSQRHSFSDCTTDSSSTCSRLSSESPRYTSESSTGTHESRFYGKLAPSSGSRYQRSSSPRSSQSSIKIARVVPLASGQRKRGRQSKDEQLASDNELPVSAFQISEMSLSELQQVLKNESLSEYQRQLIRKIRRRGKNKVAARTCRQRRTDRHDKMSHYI

[4] = target: Oxysterols receptor LXR-beta (Homo sapiens, UniProt P55055); assay type: functional, cell-based;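 further: Cell-based luminescence dose-response assay of agonist activity at LXR, run as a confirmatory counterscreen to a daf-12 agonist screen; HEK293 cells with Gal4-LXR fusion and GAL4-driven luciferase reporter; agonist potency from rising luciferase signal of a Gal4-LXR reporter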
Sequence of Oxysterols receptor LXR-beta (P55055 whole entry, the tested form may be a part): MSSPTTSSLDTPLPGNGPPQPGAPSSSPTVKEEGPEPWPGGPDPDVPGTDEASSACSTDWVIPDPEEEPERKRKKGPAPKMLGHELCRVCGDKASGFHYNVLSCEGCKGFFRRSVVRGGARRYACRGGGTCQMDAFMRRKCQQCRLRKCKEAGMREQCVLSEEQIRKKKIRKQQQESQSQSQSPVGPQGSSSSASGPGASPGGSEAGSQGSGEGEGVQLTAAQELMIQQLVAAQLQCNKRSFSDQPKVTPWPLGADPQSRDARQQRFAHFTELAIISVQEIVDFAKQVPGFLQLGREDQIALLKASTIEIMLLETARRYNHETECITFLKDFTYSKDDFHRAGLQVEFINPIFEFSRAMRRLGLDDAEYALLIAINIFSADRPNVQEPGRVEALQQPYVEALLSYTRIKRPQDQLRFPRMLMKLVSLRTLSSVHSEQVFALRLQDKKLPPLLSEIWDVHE

cells [5] = experiment: cells
[6] = luciferase reporter signal suppression in cells – H4 neuroglioma cells, luminescence, dose response (AID 1990); assay type: functional, cell-based
[7] = Luminescence Cell-Based Dose Response HTS to Identify Inhibitors of 5'UTR Stem-Loop Driven Prion Protein mRNA Translation in H4 Neuroglioblastoma Cells. [Related pubchem assays: 1827 (Project Summary), 1813 (Primary HTS)]; assay type: functional
[8] = alpha-synuclein stem-loop luciferase translation blockers – H4 neuroglioma cells, luminescence, confirmation (AID 1988); assay type: functional, cell-based
[9] = HIV-1 Vif–A3G interaction blockers – biochemical, TR-FRET, GST-Vif 1-94, biotin-A3G peptide, dose response retest, primary screen (AID 1117319); assay type: functional;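 further: TR-FRET signal of purified GST-Vif binding a biotinylated A3G peptide; inhibitors lower the FRET signal by blocking Vif and A3G binding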
[10] = target: Peroxisome proliferator-activated receptor gamma/Nuclear receptor coactivator 1 (Homo sapiens, UniProt P37231); experiment: (§1) TR-FRET dose response biochemical High Throughput Screening assay for agonists of the steroid receptor coactivator 1 (SRC-1) recruitment by the peroxisome proliferator-activated receptor gamma (PPAR gamma): non-selective agonists. [Related pubchem assays (depositor defined):AID1300, AID1808, AID504735, AID631]; assay type: protein assay
Sequence of Peroxisome proliferator-activated receptor gamma/Nuclear receptor coactivator 1 (P37231 whole entry): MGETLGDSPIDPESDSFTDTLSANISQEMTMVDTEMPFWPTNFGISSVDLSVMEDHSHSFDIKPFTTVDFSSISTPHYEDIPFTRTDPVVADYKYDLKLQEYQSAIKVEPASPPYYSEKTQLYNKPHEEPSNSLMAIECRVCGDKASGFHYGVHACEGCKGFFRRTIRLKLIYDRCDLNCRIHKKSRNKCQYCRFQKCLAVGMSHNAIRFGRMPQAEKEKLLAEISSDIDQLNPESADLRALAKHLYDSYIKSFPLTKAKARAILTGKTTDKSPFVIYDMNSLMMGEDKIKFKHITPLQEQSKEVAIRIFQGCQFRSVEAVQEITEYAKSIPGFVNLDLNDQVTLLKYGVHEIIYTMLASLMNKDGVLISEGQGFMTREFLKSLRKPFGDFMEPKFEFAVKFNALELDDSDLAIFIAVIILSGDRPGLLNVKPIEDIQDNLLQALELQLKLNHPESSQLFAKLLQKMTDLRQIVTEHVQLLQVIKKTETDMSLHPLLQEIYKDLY
Sequence of Peroxisome proliferator-activated receptor gamma/Nuclear receptor coactivator 1 (Q15788 whole entry, further chain): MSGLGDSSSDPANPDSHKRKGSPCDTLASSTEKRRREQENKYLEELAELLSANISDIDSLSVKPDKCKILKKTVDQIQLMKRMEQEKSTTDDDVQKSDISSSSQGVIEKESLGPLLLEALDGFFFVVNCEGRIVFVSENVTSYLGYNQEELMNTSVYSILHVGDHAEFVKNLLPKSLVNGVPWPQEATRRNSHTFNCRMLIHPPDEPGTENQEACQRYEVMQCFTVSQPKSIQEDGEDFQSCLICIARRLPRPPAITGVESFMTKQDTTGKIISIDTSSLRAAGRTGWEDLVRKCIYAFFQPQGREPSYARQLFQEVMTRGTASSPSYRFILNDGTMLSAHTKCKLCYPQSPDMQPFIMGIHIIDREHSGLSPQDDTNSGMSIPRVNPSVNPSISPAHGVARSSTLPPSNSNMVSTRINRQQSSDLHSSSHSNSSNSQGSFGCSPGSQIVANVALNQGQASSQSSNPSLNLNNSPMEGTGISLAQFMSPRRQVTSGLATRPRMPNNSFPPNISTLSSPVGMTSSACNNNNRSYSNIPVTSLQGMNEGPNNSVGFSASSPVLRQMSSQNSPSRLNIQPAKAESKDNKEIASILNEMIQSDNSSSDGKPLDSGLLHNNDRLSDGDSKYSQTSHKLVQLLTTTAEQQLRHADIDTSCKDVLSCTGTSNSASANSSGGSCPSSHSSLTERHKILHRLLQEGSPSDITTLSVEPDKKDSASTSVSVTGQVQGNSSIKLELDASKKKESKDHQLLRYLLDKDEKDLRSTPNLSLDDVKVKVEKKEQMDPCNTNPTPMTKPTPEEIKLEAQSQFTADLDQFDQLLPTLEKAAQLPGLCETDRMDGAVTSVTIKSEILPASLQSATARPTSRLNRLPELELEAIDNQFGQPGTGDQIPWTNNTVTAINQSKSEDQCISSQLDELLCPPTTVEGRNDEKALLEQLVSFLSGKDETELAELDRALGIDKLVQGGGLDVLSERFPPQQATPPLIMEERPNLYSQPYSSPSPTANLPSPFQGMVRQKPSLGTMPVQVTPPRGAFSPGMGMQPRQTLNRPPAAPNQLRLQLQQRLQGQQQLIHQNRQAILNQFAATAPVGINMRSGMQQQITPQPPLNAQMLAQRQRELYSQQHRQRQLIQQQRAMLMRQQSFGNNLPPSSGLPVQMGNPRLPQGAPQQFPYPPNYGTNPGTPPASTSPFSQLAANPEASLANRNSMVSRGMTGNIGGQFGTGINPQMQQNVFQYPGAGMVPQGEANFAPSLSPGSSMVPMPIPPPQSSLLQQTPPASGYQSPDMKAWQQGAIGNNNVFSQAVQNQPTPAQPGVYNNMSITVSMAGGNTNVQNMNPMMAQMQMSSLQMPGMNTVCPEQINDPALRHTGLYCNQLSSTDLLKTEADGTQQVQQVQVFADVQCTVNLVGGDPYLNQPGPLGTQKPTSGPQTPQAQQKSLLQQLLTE

[11] = target: Ubiquitin carboxyl-terminal hydrolase BAP1 (Homo sapiens, UniProt Q92560); experiment: inhibition of BAP1 ubiquitin hydrolase activity – biochemical, dose response (AID 714); assay type: functional
[12] = target: Peroxisome proliferator-activated receptor gamma/Nuclear receptor coactivator 3 (Homo sapiens, UniProt P37231); experiment: as §1, with “3 (SRC-3)” for “1 (SRC-1)”, “assays: 1301 (Confirmation screen.), 1048 (Primary screen.)]” for “assays (depositor defined):AID1300, AID1808, AID504735, AID631]”; assay type: functional
[13] = target: Peroxisome proliferator-activated receptor gamma/Nuclear receptor coactivator 2 (Homo sapiens, UniProt P37231); experiment: TR-FRET dose response biochemical High Throughput Screening assay for agonists of the steroid receptor coactivator 2 (SRC-2) recruitment by the peroxisome proliferator-activated receptor gamma (PPAR gamma): non-selective agonists. [Related pubchem assays: 1297, 1032 ]; assay type: functional
Sequence of Peroxisome proliferator-activated receptor gamma/Nuclear receptor coactivator 2 (P37231 whole entry): as the sequence (P37231 whole entry) above
Sequence of Peroxisome proliferator-activated receptor gamma/Nuclear receptor coactivator 2 (Q15596 whole entry, further chain): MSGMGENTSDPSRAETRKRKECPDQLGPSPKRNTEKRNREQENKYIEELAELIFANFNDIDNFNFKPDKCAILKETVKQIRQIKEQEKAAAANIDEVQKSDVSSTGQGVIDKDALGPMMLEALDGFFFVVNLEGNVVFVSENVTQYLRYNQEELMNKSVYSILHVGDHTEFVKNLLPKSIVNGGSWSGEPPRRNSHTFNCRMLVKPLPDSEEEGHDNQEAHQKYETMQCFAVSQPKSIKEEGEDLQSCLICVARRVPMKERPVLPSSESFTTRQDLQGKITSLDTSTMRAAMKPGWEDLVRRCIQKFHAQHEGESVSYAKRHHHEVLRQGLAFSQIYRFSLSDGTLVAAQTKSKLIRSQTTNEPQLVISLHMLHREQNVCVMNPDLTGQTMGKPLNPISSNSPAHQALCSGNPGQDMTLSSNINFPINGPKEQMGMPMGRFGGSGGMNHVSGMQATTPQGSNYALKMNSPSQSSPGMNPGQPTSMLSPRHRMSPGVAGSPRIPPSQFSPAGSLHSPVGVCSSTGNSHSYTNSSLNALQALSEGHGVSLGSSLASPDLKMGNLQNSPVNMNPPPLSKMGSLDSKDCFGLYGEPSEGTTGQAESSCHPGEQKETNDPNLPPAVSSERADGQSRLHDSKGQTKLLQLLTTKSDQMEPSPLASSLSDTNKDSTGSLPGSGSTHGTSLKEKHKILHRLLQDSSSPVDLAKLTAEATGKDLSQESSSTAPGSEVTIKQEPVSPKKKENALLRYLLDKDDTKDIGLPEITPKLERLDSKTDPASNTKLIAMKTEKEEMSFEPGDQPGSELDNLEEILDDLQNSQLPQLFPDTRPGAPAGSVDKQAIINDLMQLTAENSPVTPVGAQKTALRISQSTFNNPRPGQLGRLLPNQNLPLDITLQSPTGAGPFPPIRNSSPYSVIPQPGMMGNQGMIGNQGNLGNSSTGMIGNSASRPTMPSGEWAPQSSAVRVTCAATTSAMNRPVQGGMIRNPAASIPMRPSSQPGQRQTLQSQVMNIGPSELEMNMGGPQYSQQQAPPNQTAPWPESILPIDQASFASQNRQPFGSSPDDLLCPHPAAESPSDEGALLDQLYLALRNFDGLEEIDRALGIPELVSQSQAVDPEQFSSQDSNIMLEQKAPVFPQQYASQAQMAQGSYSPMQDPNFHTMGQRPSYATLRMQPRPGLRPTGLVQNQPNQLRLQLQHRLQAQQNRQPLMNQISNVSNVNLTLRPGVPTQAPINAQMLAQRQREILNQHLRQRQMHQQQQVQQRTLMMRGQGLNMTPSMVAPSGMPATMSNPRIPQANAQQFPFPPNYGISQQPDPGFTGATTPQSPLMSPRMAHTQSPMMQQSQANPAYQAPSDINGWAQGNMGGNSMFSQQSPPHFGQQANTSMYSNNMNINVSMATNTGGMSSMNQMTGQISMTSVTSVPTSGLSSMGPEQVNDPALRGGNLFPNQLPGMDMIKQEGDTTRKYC

Paired box protein Pax-8 = Paired box protein Pax-8 (Homo sapiens, UniProt Q06710); experiment: PAX8 transcriptional activity inhibition in RMG-I – RMG-I cells, luciferase, cherry-pick, dose response (AID 687027); assay type: functional, cell-based;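 further: luciferase reporter driven by Pax8 target thyroperoxidase promoter measured by SteadyGlo luminescence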
Sequence of Paired box protein Pax-8 (Q06710 whole entry): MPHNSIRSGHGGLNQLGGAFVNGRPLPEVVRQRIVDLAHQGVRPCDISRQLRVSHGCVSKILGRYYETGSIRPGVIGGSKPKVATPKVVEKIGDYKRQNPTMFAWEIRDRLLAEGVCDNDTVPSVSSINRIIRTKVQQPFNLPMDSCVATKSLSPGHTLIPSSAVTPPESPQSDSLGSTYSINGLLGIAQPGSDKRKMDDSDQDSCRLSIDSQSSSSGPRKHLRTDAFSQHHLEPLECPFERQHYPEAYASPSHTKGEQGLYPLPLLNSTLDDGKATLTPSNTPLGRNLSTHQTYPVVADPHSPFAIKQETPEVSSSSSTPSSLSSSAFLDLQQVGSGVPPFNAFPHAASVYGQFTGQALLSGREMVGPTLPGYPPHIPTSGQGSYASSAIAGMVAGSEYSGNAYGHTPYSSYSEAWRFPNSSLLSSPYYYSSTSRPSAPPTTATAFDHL

[14] = toxicity toward immortalized ovarian surface epithelium – cell-based, plate reader, dry powder samples, cytotoxicity control for PAX8 inhibitor project, dose response (AID 743045); assay type: functional
[15] = viability loss in A549 lung cells – cell-based, 24 h, CellTiter-Glo luminescence, cherry-picks, cytotoxicity control, dose response (AID 1053115); assay type: functional; details: A549, 24 h
[16] = OVCAR-3 cell viability loss – plate reader, dry powder samples, PAX8 inhibitor project, dose response (AID 743044); assay type: functional, cell-based
[17] = general mammalian cell viability loss – inhibitor set, cherry-pick, set 2, cytotoxicity control for miR-122 modulator project, dose response (AID 720697); assay type: functional, cell-based
[18] = general mammalian cell viability loss – activator set, cherry-pick, cytotoxicity control for miR-122 modulator project, dose response (AID 720690); assay type: functional, cell-based;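 further: HEK293T human cells scored for general mammalian cytotoxicity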
[19] = OVCAR8 cell viability loss – plate reader, dry powder samples, PAX8 project, dose response (AID 743197); assay type: functional, cell-based; details: OVCAR-8
[20] = lung carcinoma cell viability loss – CellTiter-Glo luminescence, dry powder, set 17, dose response (AID 1117284); assay type: functional, cell-based; details: A549
[21] = viability loss in THP-1 monocytes – THP-1 cells, cytotoxicity control for Vif-APOBEC3G degradation inhibitor project, dose response (AID 1117359); assay type: functional; details: THP-1
[22] = target: Signal transducer and activator of transcription 1-alpha/beta (Homo sapiens, UniProt P42224); experiment: inhibition of STAT1 reporter activity – cell-based, NIH 3T3, luciferase reporter, dose response (AID 1396); assay type: functional

COc1ccc(CN(C(=O)c2ccco2)c2ccc(C)c(C)c2)cc1
AC50 [1]: 24.7 µM (active)

CC1CC(=O)NN=C1c1ccc(NCC(C)(C)NCC(O)COc2cc(Cl)ccc2C#N)cc1 (centres undefined) [OBERADILOL]
IC50 [2]: 15.2 µM (inactive)
IC50 (cells [3]): > 33.3 µM (inactive)

Clc1ccc(C=Cc2ccccn2)c(Cl)c1
IC50 (Protein skinhead-1): 4.24 µM (active)
EC50 [4]: > 67.6 µM (inactive)
EC50 (cells [5]): > 67.6 µM (inactive)

Cc1ccc(NCc2nnc(SCc3ccc(C#N)cc3)n2Cc2ccco2)c(C)c1
EC50 [6]: > 120 µM (not active)
EC50 [7]: > 120 µM (not active)
EC50 [8]: > 120 µM (not active)
IC50 [9]: > 100 µM (active)

O=C(Nc1nnc(-c2ccco2)s1)C1CCN(S(=O)(=O)c2ccc(Cl)cc2)CC1
EC50 [10]: 56.6 µM (inactive)
IC50 [11]: > 50 µM (not active)
EC50 [12]: > 79.4 µM (not active)
EC50 [13]: 31.4 µM (not active)

C[C@H](O)C#Cc1ccc2c(c1)O[C@@H](CN(C)Cc1ccc(-c3ccccc3)cc1)[C@H](C)CN([C@H](C)CO)S2(=O)=O
AC50 (Paired box protein Pax-8): 5.27 µM (active)
AC50 [14]: 34.8 µM (active)
AC50 [15]: 50.8 µM (active)
AC50 [16]: 46.9 µM (active)
AC50 [17]: 8.52 µM (active)
AC50 [18]: 9.51 µM (active)
AC50 [19]: 44.2 µM (active)
AC50 [20]: 26.4 µM (active)

Cc1cc(N(CCCl)CCCl)ccc1C=NNC(=O)c1cccnc1
CC50 [21]: 20 µM (active)

CC1C(=O)NN=C1C(=O)N/N=C\C(Br)=C\c1ccccc1 (centres undefined)
IC50 [22]: 10.5 µM (not active)
